The values that follow come from ChEMBL document CHEMBL1201862, “PubChem BioAssay data set” (2004).

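Briefly, cells in 96-well plates were exposed to five compound concentrations for 48 h, and endpoints were estimated by linear interpolation. At the GI50, growth is halved.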 Activity calls are given as the source filed them. No stated cut-off is given here; in the data, active = GI50 up to about 1.1 µM and inactive = higher.

Among the test systems are SK-MEL-5; CAKI-1; IGROV-1; SK-OV-3; SNB-19; SK-MEL-28; U-251; HCC 2998; NCI-H460; BT-549; M14; SNB-75; CCRF-CEM; OVCAR-4; UACC-62; HCT-15; OVCAR-5; DU-145; NCI-H226; A498.
Experiment in all cases: inhibition of tumour cell growth, NCI panel, 48 h

For `C=C(COC(=O)C(C)C)[C@H]1Oc2ccc(C(C)=O)cc2[C@@H]1OC(=O)C(C)C`, the GI50 in the experiment with SK-MEL-5, with CAKI-1, in the experiment on IGROV-1, in the experiment with SK-OV-3, in the experiment on SNB-19 and with SK-MEL-28 was > 100 µM (inactive) each time. For the same molecule, the GI50 in the experiment with U-251, with HCC 2998, in the experiment with NCI-H460, with BT-549, in the experiment on M14 and with SNB-75 was > 100 µM (inactive) each time. Moreover, the GI50 with CCRF-CEM is > 100 µM (inactive); in the experiment with OVCAR-4, > 100 µM (inactive); in the experiment with UACC-62, > 100 µM (inactive); with HCT-15, above 100 µM; in the experiment with OVCAR-5 it was > 100 µM (inactive); in the experiment on DU-145, > 100 µM (inactive). Moreover, in the experiment on NCI-H226, the GI50 was > 100 µM (inactive).
For `Cc1ccc(N(C)S(=O)(=O)c2ccccc2)cc1`, the GI50 in the experiment on SK-MEL-5 is 67.5 µM (inactive); with CAKI-1 it was > 100 µM (inactive); with IGROV-1, > 100 µM (inactive); in the experiment on SK-OV-3, > 100 µM (inactive); in the experiment on SNB-19, > 100 µM (inactive); in the experiment with SK-MEL-28 it was > 100 µM (inactive). The GI50 in the experiment with U-251 is > 100 µM (inactive); with HCC 2998 it was > 100 µM (inactive); in the experiment on NCI-H460, 87.9 µM (inactive); in the experiment with BT-549, 61 µM (inactive); in the experiment on M14 it was > 100 µM (inactive); in the experiment with SNB-75, > 100 µM (inactive). Moreover, the GI50 is > 100 µM (inactive) in the experiment with CCRF-CEM; > 100 µM (inactive) in the experiment with OVCAR-4; 84.5 µM (inactive) with UACC-62; above 100 µM in the experiment with HCT-15; > 100 µM (inactive) with OVCAR-5; > 100 µM (inactive) with DU-145. In the experiment with NCI-H226, the GI50 was > 100 µM (inactive).
Turning to `Cc1cc(Cl)ccc1NC(=O)/C(CC(=O)CC(c1ccccc1)c1c(O)c2ccccc2oc1=O)=N\O` (centres undefined), the GI50 in the experiment on SK-MEL-5, in the experiment with CAKI-1, in the experiment on IGROV-1, in the experiment with SK-OV-3, in the experiment with SNB-19 and in the experiment with SK-MEL-28 was > 100 µM (inactive) each time. Further, the GI50 in the experiment on U-251, in the experiment on HCC 2998, with NCI-H460, with BT-549, in the experiment on M14 and with SNB-75 was > 100 µM (inactive) in each case. Besides, the GI50 with CCRF-CEM was 7.87 µM (inactive); in the experiment with OVCAR-4, > 100 µM (inactive); in the experiment with UACC-62, > 100 µM (inactive); with HCT-15 it was above 100 µM; in the experiment on OVCAR-5 it was > 100 µM (inactive); in the experiment on DU-145, > 100 µM (inactive). The GI50 with NCI-H226 was > 100 µM (inactive).
`O=c1cc(CNC2CCCC2)[nH]c(=O)[nH]1`: the GI50 with SK-MEL-5, with CAKI-1, in the experiment on IGROV-1, with SK-OV-3, with SNB-19 and in the experiment with SK-MEL-28 was > 100 µM (inactive) throughout. Moreover, the GI50 in the experiment with U-251, in the experiment with HCC 2998, in the experiment on NCI-H460, in the experiment on BT-549, in the experiment with M14 and in the experiment on SNB-75 was > 100 µM (inactive) each time. In addition, the GI50 in the experiment with CCRF-CEM was > 100 µM (inactive); with OVCAR-4 it was > 100 µM (inactive); in the experiment with A498, > 100 µM (inactive); in the experiment with UACC-62, > 100 µM (inactive); in the experiment with HCT-15 it was above 100 µM; in the experiment on OVCAR-5 it was > 100 µM (inactive). Besides, in the experiment on DU-145, the GI50 was > 100 µM (inactive).
In the case of `O=C1CC(C(O)CO)CC(=O)N1` (centres undefined), the GI50 in the experiment on SK-MEL-5, with CAKI-1, with IGROV-1, with SNB-19, in the experiment on SK-MEL-28 and in the experiment with U-251 was > 100 µM (inactive) in each case. Moreover, the GI50 with HCC 2998, with NCI-H460, with BT-549, with M14, in the experiment on CCRF-CEM and in the experiment with A498 was > 100 µM (inactive) each time. The GI50 is above 100 µM in the experiment with HCT-15, > 100 µM (inactive) with OVCAR-5, > 100 µM (inactive) in the experiment on DU-145 and > 100 µM (inactive) in the experiment on NCI-H226.
With `COC(=O)c1ccc(C)cc1/C=C1\Cc2ccc(C)cc2C1=O`, the GI50 is 13.9 µM (inactive) with SK-MEL-5; 26.3 µM (inactive) with CAKI-1; 10.4 µM (inactive) with IGROV-1; 17.2 µM (inactive) in the experiment with SNB-19; 16.6 µM (inactive) in the experiment on SK-MEL-28; 12.6 µM (inactive) in the experiment on U-251. Besides, the GI50 with HCC 2998 was 19.7 µM (inactive); with NCI-H460, 40.2 µM (inactive); in the experiment with BT-549 it was 4.91 µM (inactive); with M14, 16.1 µM (inactive); with SNB-75, 5.64 µM (inactive); in the experiment with CCRF-CEM, 18.2 µM (inactive). Further, the GI50 was 14.4 µM (inactive) in the experiment with OVCAR-4; 19.1 µM (inactive) in the experiment on A498; 11.4 µM (inactive) in the experiment with UACC-62; 13 µM in the experiment with HCT-15; 15.9 µM (inactive) in the experiment with OVCAR-5; 16.7 µM (inactive) in the experiment on DU-145. Also, the GI50 in the experiment on NCI-H226 was 10.1 µM (inactive).
With `N#C/C(=C\c1ccccc1)C(=O)Nc1nnc(-c2ccccc2)o1`, the GI50 with SK-MEL-5 is 19 µM (inactive); in the experiment with CAKI-1, 28.1 µM (inactive); in the experiment on IGROV-1, 27.6 µM (inactive); in the experiment with SK-OV-3, 31.8 µM (inactive); in the experiment with SK-MEL-28 it was 39.9 µM (inactive); in the experiment on U-251, 37.4 µM (inactive). The GI50 in the experiment on HCC 2998 was 63.1 µM (inactive); in the experiment on BT-549 it was 28.2 µM (inactive); in the experiment with M14, 37.8 µM (inactive); in the experiment on SNB-75 it was 48.8 µM (inactive); in the experiment with CCRF-CEM, 17.9 µM (inactive); in the experiment on OVCAR-4, 32.4 µM (inactive). Besides, the GI50 was 27.3 µM (inactive) with A498; 22.3 µM (inactive) in the experiment on UACC-62; 26.9 µM in the experiment with HCT-15; 82.6 µM (inactive) with OVCAR-5; 50.4 µM (inactive) in the experiment on DU-145; 44.9 µM (inactive) in the experiment on NCI-H226.
Turning to `O=C(O)CO[C@@]12C#C/C=C\C#C[C@@H]3N(C(=O)Oc4ccccc4)c4ccccc4[C@]14O[C@@]34CCC2`, the GI50 is 28 µM (inactive) with SK-MEL-5; 38.7 µM (inactive) with CAKI-1; 27.2 µM (inactive) in the experiment with IGROV-1; 6.75 µM (inactive) with SK-OV-3; 37 µM (inactive) in the experiment on SNB-19; 52.8 µM (inactive) in the experiment with SK-MEL-28. For the same molecule, the GI50 with U-251 is 19.1 µM (inactive); in the experiment with HCC 2998, 12.5 µM (inactive); in the experiment with NCI-H460, 36.4 µM (inactive); in the experiment with BT-549 it was 30.1 µM (inactive); with M14, 41.1 µM (inactive); with CCRF-CEM, 29.7 µM (inactive). For the same molecule, the GI50 in the experiment on OVCAR-4 was 56.1 µM (inactive); in the experiment with A498, 59.3 µM (inactive); in the experiment on UACC-62, 11.5 µM (inactive); in the experiment on HCT-15, 8.55 µM; in the experiment with DU-145, 43.3 µM (inactive); with NCI-H226, 71.9 µM (inactive).
For `Cc1cc(S(=O)(=O)Nc2nc(-c3ccccn3)n[nH]2)c(S)cc1Cl`, the GI50 in the experiment with SK-MEL-5 is 8.55 µM (inactive); with CAKI-1, 5.21 µM (inactive); in the experiment on IGROV-1, 25.3 µM (inactive); in the experiment with SK-OV-3, 12.9 µM (inactive); in the experiment on SNB-19 it was 16.9 µM (inactive); in the experiment on SK-MEL-28, 35.1 µM (inactive). For the same molecule, the GI50 with U-251 was 13.3 µM (inactive); in the experiment with HCC 2998 it was 15 µM (inactive); with NCI-H460, 10.6 µM (inactive); with BT-549 it was 17.9 µM (inactive); in the experiment with M14 it was 15.2 µM (inactive); in the experiment on SNB-75, 28.1 µM (inactive). Further, the GI50 with OVCAR-4 is 18.6 µM (inactive); with A498 it was 16.9 µM (inactive); in the experiment with UACC-62, 7.96 µM (inactive); with HCT-15 it was 5.68 µM; in the experiment with OVCAR-5, 15.5 µM (inactive); with DU-145, 19.2 µM (inactive). For the same molecule, the GI50 with NCI-H226 was 12.3 µM (inactive).
As for `CCOc1ccc(NC(=O)/C=C/c2ccco2)cc1`, the GI50 in the experiment with SK-MEL-5 is 44.3 µM (inactive); with CAKI-1, > 100 µM (inactive); in the experiment with IGROV-1, > 100 µM (inactive); in the experiment on SK-OV-3, 32.4 µM (inactive); in the experiment with SNB-19 it was > 100 µM (inactive); with SK-MEL-28, > 100 µM (inactive). In addition, the GI50 in the experiment with U-251 was 33.8 µM (inactive); in the experiment on HCC 2998 it was 35.2 µM (inactive); in the experiment on NCI-H460 it was 43.8 µM (inactive); with BT-549, 38 µM (inactive); in the experiment with M14 it was 58.2 µM (inactive); in the experiment on SNB-75, 84.3 µM (inactive). Moreover, the GI50 was 34.8 µM (inactive) with CCRF-CEM; 42.7 µM (inactive) in the experiment on A498; > 100 µM (inactive) in the experiment with UACC-62; 41.2 µM with HCT-15; > 100 µM (inactive) in the experiment on OVCAR-5; 47 µM (inactive) in the experiment on DU-145. Also, the GI50 in the experiment with NCI-H226 was 86.9 µM (inactive).
Turning to `Cc1oc2nc(N(C)C)nc(Cl)c2c1C`, the GI50 with SK-MEL-5 was > 100 µM (inactive); in the experiment on CAKI-1 it was 49.4 µM (inactive); in the experiment on IGROV-1, 49.8 µM (inactive); with SNB-19 it was > 100 µM (inactive); in the experiment on SK-MEL-28 it was > 100 µM (inactive); in the experiment on U-251, > 100 µM (inactive). In addition, the GI50 is > 100 µM (inactive) in the experiment on HCC 2998; > 100 µM (inactive) in the experiment on NCI-H460; > 100 µM (inactive) in the experiment with BT-549; > 100 µM (inactive) in the experiment on M14; 3.89 µM (inactive) in the experiment on SNB-75; > 100 µM (inactive) in the experiment with CCRF-CEM. Besides, the GI50 with OVCAR-4 was 32.1 µM (inactive); in the experiment with A498, 29.9 µM (inactive); in the experiment on UACC-62 it was > 100 µM (inactive); in the experiment with HCT-15 it was above 100 µM; with OVCAR-5 it was > 100 µM (inactive); in the experiment on DU-145 it was > 100 µM (inactive). In addition, the GI50 with NCI-H226 is 84.1 µM (inactive).
